Test results reported in US20040202638A1, “Substance capable of potentiating laminin 5 productivity in epidermal cells and utilization thereof” (priority 2001, published 2004).

Test system: laminin 5
Assay: Laminin 5 productivity evaluation test (keratinocyte culture, sandwich ELISA)
Type: cell-based, human
Settings: for laminin 5 productivity potentiating action: result in words
Protocol: (1) Culture of Keratinocytes
Keratinocytes were isolated from the human preputium and cultured in an epidermal cell growth medium (KGM) having a low calcium concentration. To this culture medium were added bovine pituitary extract and EGF. After cultivation in KGM up to the fourth generation, the cells were treated with trypsin and EDTA to suspend adherent cells. Then, the culture was filtered to remove cell aggregates and thereby to obtain a homogeneous cell suspension. The cells were collected by centrifugation and resuspended in DMEM-F12 (2:I)-0.1% BSA so as to give a cell density of8×10^4 per ml. Each 0.5 ml of this cell suspension was added to 0.5 ml of the same medium containing a twofold concentration of each test sample. Using a 24-well plate, incubation was carried out at 37° C. for 24 hours. After completion of the incubation, the culture supernatant was transferred to an Eppendorf tube and centrifuged at 10,000 rpm for 5 minutes. The supernatant was transferred to a new tube and stored at −20° C. till the day for the determination of laminin 5. In order to solubilize laminin 5 in the cells and that bound to the culture plastics, a tris-HCl buffer (pH 7.4) containing various surfactants was added to each well and allowed to stand at −20° C. overnight. On the following day, the mixture was ultrasonicated and frozen again. On the following day, the mixture was thawed again and centrifuged at 10,000 rpm for 5 minutes. The supernatant was transferred to a tube and stored at −20° C. till the day for the determination of laminin 5.
(2) Determination of Laminin 5 by the Sandwich ELISA Method
Laminin 5 present in the culture supernatant and the cell layer was determined by the sandwich ELISA method. A monoclonal antibody (BM165) to the laminin α3 chain of laminin 5 was attached to a solid layer of a 96-well ELISA plate. In order to determine laminin 5 in sandwiched manner, a monoclonal antibody (6F12) to the laminin β3 chain was previously biotinized (b-6F12) and used as the other antibody. […] A sample was added to each of the wells in which a 3% gelatin-phosphate buffer solution containing b-6F12 had previously been placed. The final dilution ratio of the sample in the wells was ¼ for the culture medium and 1/10 for the cell layer. After the antigen-antibody reaction was carried out at 37° C. for 2 hours, the plate was washed, and an avidin HRP (horseradish peroxidase) solution was added thereto and reacted for a period of 30 minutes to 1 hour. After washing, a solution of ABTS serving as a substrate for HRP was added thereto and the absorbance at 405 nm was measured with an ELISA plate reader. A calibration curve was constructed over a range of 0 to 40 ng/ml.
The sum of the laminin 5 liberated into the culture medium and that remaining in the cell layer was calculated. The yield of laminin 5 was expressed by the relative value to that of the sample to which none of the plant extracts was added (control).

[1] = Table 3 (comparative example), concentration 1 μM
[2] = Table 3 (comparative example), concentration 10 μM
[3] = Table 3 (comparative example), concentration 100 μM

Structure (SMILES) | Laminin 5 yield (%) Relative to the Control (Table 2, concentration 1 μM) [%] | Laminin 5 yield (%) Relative to the Control (Table 2, concentration 10 μM) [%] | laminin 5 productivity potentiating action | Laminin 5 yield (%) Relative to the Control [1] [%] | Laminin 5 yield (%) Relative to the Control [2] [%] | Laminin 5 yield (%) Relative to the Control [3] [%] | Laminin 5 yield (%) Relative to the Control (Table 2, concentration 0.1 μM) [%]
C[C@H]1[C@H](C)CC[C@]2(C)CC[C@]3(C)C4=C(CC[C@@]3(C)[C@H]12)[C@@]1(C)CC[C@H](O)C(C)(C)C1CC4 (stereo partly drawn) [Isobauerenol, isobauerenol] | 132 | 137 | exhibiting laminin 5 productivity potentiating action |  |  |  | 
O=c1c(-c2ccc(O)c(O)c2)coc2c([C@@H]3O[C@H](CO)[C@@H](O)[C@H](O)[C@H]3O)c(O)ccc12 [Glucoside, 8-β-D-glucopyranosyl-7-hydroxy-3-(3′,4′-dihydroxyphenyl)-4H-1-benzopyran-4-one] |  |  |  | 93 | 95 | 99 | 
O=c1c(-c2ccc(O)cc2)coc2cc(O)ccc12 [Daidzein, 4′,7-dihydroxyisoflavone] |  |  | little or no laminin 5 productivity potentiating action | 93 | 99 | 74 | 
O=c1c(-c2ccc(O)cc2)coc2c([C@@H]3O[C@H](CO)[C@@H](O)[C@H](O)[C@H]3O)c(O)ccc12 [Puerarin, daidzein-8-glucoside] |  |  | little or no laminin 5 productivity potentiating action |  |  |  | 
O=c1c(-c2ccc(O)cc2)coc2cc(O[C@@H]3O[C@H](CO)[C@@H](O)[C@H](O)[C@H]3O)ccc12 [daidzin, daidzein-7-glucoside] |  |  | little or no laminin 5 productivity potentiating action |  |  |  | 
C=C(C)[C@@H]1CC[C@]2(C)CC[C@]3(C)[C@H](CC[C@@H]4[C@@]5(C)CC[C@H](O)C(C)(C)[C@@H]5CC[C@]43C)[C@@H]12 [Lupeol, lupeol] | 154 |  | exhibiting laminin 5 productivity potentiating action |  |  |  | 122
